Experiments:
Format in all cases: cell-based
Details in all cases: 72 h; human CD4+ T cells under TH17-polarizing conditions, 3 days, supernatant ELISA, 0.1% DMSO
IL-17F = assay: Human TH17 cytokine inhibition as measured by ELISA (IL-17F)
Procedure: (§1) Peripheral blood mononuclear cells (PBMCs) were sourced from freshly prepared leukocyte enriched plasma (buffy coat) from healthy donors (New York Blood Center). PBMCs were isolated by density gradient centrifugation using Ficoll-Paque™ PLUS (GE Healthcare). Human CD4+ T cells were seeded into 96-well plates (5×10^4 cells/well) and activated with plate-bound anti-human (h)-CD3 antibody and soluble h-aCD28 (both at 1 ug/ml; eBioscience) and differentiated into TH17 cells with 20 ng/mL h-IL-6, 5 ng/mL h-TGF-β1, 10 ng/mL h-IL-23 (eBioscience) and 10 ng/mL IL-1β (Miltenyi Biotec) in serum-free TexMACS Medium (Miltenyi Biotec) supplemented with 1% Penicillin/Streptomycin (Lonza) for 3 days. CD4+ T cells propagated under TH17-polarizing conditions were cultured in the presence or absence of various concentrations of compounds with a final concentration of 0.1% DMSO. Supernatants were collected and stored at −20° C. until assayed for IL-17A, IL-17F and IL-21 levels by “Ready-Set-Go” ELISA kits (eBioscience) as per manufacturer's instructions. Endpoint absorbance was read at 450 nm using a microplate reader (Perkin Elmer).

IL-21 = assay: Human TH17 cytokine inhibition as measured by ELISA (IL-21)
Procedure: as §1

IL-17A = assay: Human TH17 cytokine inhibition as measured by ELISA (IL-17A)
Procedure: as §1

IL-22 = assay: Human TH17 cytokine inhibition as measured by ELISA (IL-22)

Measured: IC50

C[C@@H]1C[C@H](Cn2ccc3nc(-c4cn[nH]c4)ccc32)CN1C(=O)CCc1ccccc1 (racemic) [Example 41, rac.-cis-1-(4-((5-(1H-pyrazol-4-yl)-1H-pyrrolo[3,2-b]pyridin-1-yl)methyl)-2-methylpyrrolidin-1-yl)-3-phenylpropan-1-one]
< 10 µM: IL-17F | IL-21 | IL-17A

C[C@H]1C[C@H](Cn2ccc3nc(-c4cn[nH]c4)ccc32)CN1C(=O)CCc1ccccc1 (racemic) [Example 40, rac.-trans-1-(4-((5-(1H-pyrazol-4-yl)-1H-pyrrolo[3,2-b]pyridin-1-yl)methyl)-2-methylpyrrolidin-1-yl)-3-phenylpropan-1-one]
< 10 µM: all assays above
